Measurements: ChEMBL document CHEMBL5528050, “Discovery of a Novel Series of Homo sapiens Caseinolytic Protease P Agonists for Colorectal Adenocarcinoma Treatment via ATF3-Dependent Integrated Stress Response” (J Med Chem, 2024)
pIC50: −log10 of the molar value. The source made the active and inactive calls. No cut-off for these calls is given here.

Assays:
Staphylococcus aureus = assay: Antibacterial activity against Staphylococcus aureus ATCC29213 assessed as reduction in bacterial growth; assay type: functional
[1] = Antiproliferative activity against HEK293 cells assessed as inhibition of cell growth measured after 72 hrs by CCK-8 method; assay type: toxicity, cell-based; conditions: human
[2] = Antiproliferative activity against rat H9c2 cells assessed as inhibition of cell growth measured after 72 hrs by CCK-8 method; assay type: toxicity, cell-based
[3] = Antiproliferative activity against human L02 cells assessed as inhibition of cell growth measured after 72 hrs by CCK-8 method; assay type: toxicity, cell-based
[4] = Antiproliferative activity against human HCoEpiC cells assessed as inhibition of cell growth measured after 72 hrs by CCK-8 method; assay type: toxicity, cell-based
HCT-116 [5] = assay: Induction of ROS generation in human HCT-116 cells assessed as increase in intracellular ROS level measured after 48 hrs DCFH-DA staining based analysis; assay type: functional, cell-based
Cell membrane = assay: Induction of mitochondrial membrane potential loss in human HCT-116 cells assessed as increase in green fluorescence at high dose measured after 48 hrs by JC-1 staining based microscopy analysis; assay type: cell membranes
HCT-116 [6] = assay: Induction of apoptosis in human HCT-116 cells assessed as reduction in SDHB expression measured after 48 hrs by Western blot analysis; assay type: functional, cell-based; conditions: dose 0.5-2 µM
HCT-116 [7] = assay: Induction of cell cycle arrest in human HCT-116 cells assessed as increase in number of cells at G2 phase at high dose measured after 48 hrs by PI staining based flow cytometry analysis; assay type: functional
[8] = Acute toxicity in BALB/c mouse assessed as effect on heart at 50 mg/kg, iv administered as single dose measured upto 14 days by H and E staining based analysis; assay type: organism-based; conditions: in vivo, 336 h, time < 14 day
[9] = Acute toxicity in BALB/c mouse assessed as effect on liver at 50 mg/kg, iv administered as single dose measured upto 14 days by H and E staining based analysis; assay type: organism-based; conditions: in vivo, 336 h, time < 14 day
[10] = Acute toxicity in BALB/c mouse assessed as effect on lung at 50 mg/kg, iv administered as single dose measured upto 14 days by H and E staining based analysis; assay type: organism-based; conditions: in vivo, 336 h, time < 14 day
[11] = Acute toxicity in BALB/c mouse assessed as reduction in body weight at low dose iv measured upto 21 days relative to control; assay type: organism-based; design: scale not given: the % may be the effect or the level left; conditions: in vivo, 504 h, time < 21 day
[12] = Acute toxicity in BALB/c mouse assessed as effect on body weight at middle to high dose iv measured upto 21 days relative to control; assay type: organism-based; conditions: in vivo, 504 h, time < 21 day
[13] = Acute toxicity in BALB/c mouse assessed as increase in body weight at 5 mg/kg, iv measured upto 21 days relative to control; assay type: organism-based; conditions: in vivo, 504 h, time < 21 day
HCT-116 [14] = assay: Antitumor activity against human HCT-116 cells xenografted in BALB/c nude mouse model assessed as reduction in tumor volume at 1.25 mg/kg,iv administered twice weekly and measured upto 21 days relative to control; assay type: functional; design: scale not given: the % may be the effect or the level left; conditions: time <= 21 day
HCT-116 [15] = assay: Antitumor activity against human HCT-116 cells xenografted in BALB/c nude mouse model assessed as reduction in tumor volume at 5 mg/kg,iv and measured upto 21 days relative to control; assay type: functional; design: scale not given: the % may be the effect or the level left; conditions: time <= 21 day
HCT-116 [16] = assay: Antitumor activity against human HCT-116 cells xenografted in BALB/c nude mouse model assessed as reduction in tumor weight at middle dose administered as iv twice weekly and measured upto 21 days; assay type: functional; conditions: time <= 21 day
HCT-116 [17] = assay: Antitumor activity against human HCT-116 cells xenografted in BALB/c nude mouse model assessed as reduction in SDHB expression at upto 5 mg/kg, iv administered twice weekly by Western blot analysis; assay type: functional, organism-based
HCT-116 [18] = assay: Antitumor activity against human HCT-116 cells xenografted in BALB/c nude mouse model assessed as decrease in Bcl-2 expression at upto 5 mg/kg, iv administered twice weekly by Western blot analysis; assay type: functional, organism-based
HCT-116 [19] = assay: Antitumor activity against human HCT-116 cells xenografted in BALB/c nude mouse model assessed as increase in Bax expression at upto 5 mg/kg, iv administered twice weekly by Western blot analysis; assay type: functional, organism-based
[20] = Toxicity in BALB/c nude mouse assessed as effect on heart at 1.25 to 5 mg/kg, iv administered twice weekly and measured after 21 days by H and E staining based analysis; assay type: organism-based; conditions: in vivo, 504 h, dose 1.25-5 mg/kg, time 21 day
[21] = Toxicity in BALB/c nude mouse assessed as effect on spleen at 1.25 to 5 mg/kg, iv administered twice weekly and measured after 21 days by H and E staining based analysis; assay type: organism-based; conditions: in vivo, 504 h, dose 1.25-5 mg/kg, time 21 day
[22] = Toxicity in BALB/c nude mouse assessed as effect on kidney at 1.25 to 5 mg/kg, iv administered twice weekly and measured after 21 days by H and E staining based analysis; assay type: organism-based; conditions: in vivo, 504 h, dose 1.25-5 mg/kg, time 21 day
[23] = Half life in Sprague-Dawley rat at 10 mg/kg, iv by LC-MS/MS analysis; assay type: ADME, organism-based; conditions: in vivo
[24] = Cmax in Sprague-Dawley rat at 10 mg/kg, po by LC-MS/MS analysis; assay type: ADME, organism-based; conditions: in vivo
[25] = Tmax in Sprague-Dawley rat at 10 mg/kg, po by LC-MS/MS analysis; assay type: ADME, organism-based; conditions: in vivo
[26] = Half life in Sprague-Dawley rat at 10 mg/kg, po by LC-MS/MS analysis; assay type: ADME, organism-based; conditions: in vivo
[27] = Metabolic stability in human liver microsomes assessed as half life at 1 uM measured upto 60 mins in presence of NADPH regenerating system by LC-MS/MS analysis; assay type: ADME, Microsome
[28] = Metabolic stability in rat liver microsomes assessed as half life at 1 uM measured upto 60 mins in presence of NADPH regenerating system by LC-MS/MS analysis; assay type: ADME, Microsome
[29] = Metabolic stability in human liver microsomes assessed as intrinsic clearance at 1 uM measured upto 60 mins in presence of NADPH regenerating system by LC-MS/MS analysis; assay type: ADME, Microsome; conditions: read-out: CLH
[30] = Metabolic stability in rat liver microsomes assessed as intrinsic clearance at 1 uM measured upto 60 mins in presence of NADPH regenerating system by LC-MS/MS analysis; assay type: ADME, Microsome; conditions: read-out: CLH
HCT-116 [31] = assay: Upregulation of ATF3 expression in human HCT-116 cells measured after 48 hrs by Western blot analysis; assay type: functional, cell-based
HCT-116 [32] = assay: Upregulation of DDIT3 expression in human HCT-116 cells measured after 48 hrs by Western blot analysis; assay type: functional, cell-based
HCT-116 [33] = assay: Upregulation of DDIT4 expression in human HCT-116 cells measured after 48 hrs by Western blot analysis; assay type: functional, cell-based
HCT-116 [34] = assay: Upregulation of JUN expression in human HCT-116 cells measured after 48 hrs by Western blot analysis; assay type: functional, cell-based
HCT-116 [35] = assay: Upregulation of ASNS expression in human HCT-116 cells measured after 48 hrs by Western blot analysis; assay type: functional, cell-based
HCT-116 [36] = assay: Effect on DDIT3 expression in ClpP knockdown human HCT-116 cells at 2 uM measured after 48 hrs by Western blot analysis; assay type: functional, cell-based
HCT-116 [37] = assay: Effect on JUN expression in ClpP knockdown human HCT-116 cells at 2 uM measured after 48 hrs by Western blot analysis; assay type: functional, cell-based
SW-620 = assay: cells; conditions: Homo sapiens, SW-620, 72 h
Description: Antiproliferative activity against human SW-620 cells assessed as inhibition of cell growth measured after 72 hrs by CCK-8 method

SW480 = assay: cells; conditions: Homo sapiens, SW480, 72 h
Description: Antiproliferative activity against human SW480 cells assessed as inhibition of cell growth measured after 72 hrs by CCK-8 method

**Q.** With N#Cc1cccc(CN2CCC=C(C(=O)NCc3ccc(C(F)(F)F)cc3)C2)c1 as the molecule, how does the MIC (Staphylococcus aureus) read?
**A.** > 128 µg/mL

**Q.** And the IC50 at 72 h [1]?
**A.** 78.1 µM

**Q.** And the IC50 at 72 h [2]?
**A.** 60.6 µM

**Q.** What about the IC50 at 72 h [3] of the same molecule?
**A.** 64.1 µM

**Q.** And the IC50 at 72 h [4]?
**A.** 75.2 µM

**Q.** What about the Activity (HCT-116 [5]) of the same molecule?
**A.** Active

**Q.** And the Activity (Cell membrane)?
**A.** Active

**Q.** And the Activity (HCT-116 [6])?
**A.** Dose-Dependent Effect

**Q.** And the Activity (HCT-116 [7])?
**A.** ~40%

**Q.** What about the Activity [8] of the same molecule?
**A.** Non-Toxic

**Q.** What about the Activity [9] of the same molecule?
**A.** Non-Toxic

**Q.** And the Activity [10]?
**A.** Non-Toxic

**Q.** And the Activity [11]?
**A.** 10%

**Q.** And the Activity [12]?
**A.** Non-Toxic

**Q.** And the Activity [13]?
**A.** Toxic

**Q.** What about the Activity (HCT-116 [14]) of the same molecule?
**A.** 55.1%

**Q.** And the Activity (HCT-116 [15])?
**A.** 83.6%

**Q.** What about the Activity (HCT-116 [16]) of the same molecule?
**A.** 250 mg

**Q.** What about the Activity (HCT-116 [17]) of the same molecule?
**A.** Active

**Q.** What about the Activity (HCT-116 [18]) of the same molecule?
**A.** Active

**Q.** What about the Activity (HCT-116 [19]) of the same molecule?
**A.** Active

**Q.** And the Activity [20]?
**A.** Non-Toxic

**Q.** And the Activity [21]?
**A.** Non-Toxic

**Q.** What about the Activity [22] of the same molecule?
**A.** Non-Toxic

**Q.** And the half-life [23]?
**A.** 288 min

**Q.** And the Cmax [24]?
**A.** 137 ng/mL

**Q.** What about the Tmax [25] of the same molecule?
**A.** 5.4 h

**Q.** And the half-life [26]?
**A.** 282 min

**Q.** And the half-life at 1 µM [27]?
**A.** 6.1 min

**Q.** What about the half-life at 1 µM [28] of the same molecule?
**A.** 18 min

**Q.** And the CLint scaled at 1 µM [29]?
**A.** 206 mL/min/kg

**Q.** What about the CLint scaled at 1 µM [30] of the same molecule?
**A.** 305 mL/min/kg

**Q.** And the Activity (HCT-116 [31])?
**A.** Active

**Q.** And the Activity (HCT-116 [32])?
**A.** Active

**Q.** And the Activity (HCT-116 [33])?
**A.** Active

**Q.** What about the Activity (HCT-116 [34]) of the same molecule?
**A.** Active

**Q.** What about the Activity (HCT-116 [35]) of the same molecule?
**A.** Active

**Q.** And the Activity (HCT-116 [36])?
**A.** inactive

**Q.** And the Activity (HCT-116 [37])?
**A.** inactive

**Q.** What about the pIC50 (SW-620) of the same molecule?
**A.** 5.82

**Q.** What about the pIC50 (SW480) of the same molecule?
**A.** 5.27
